Data as given in patent US7105529B2, “Substituted oxindole derivatives as protein tyrosine and as protein serine/threonine kinase inhibitors and compositions and methods of treating chemotherapy and radiation therapy side effects” (SmithKline Beecham Corporation, priority 1997, dated 2006).

What was measured:
[1] = tested on: HDF normal diploid fibroblast cells; experiment: FACS assay (cell death), HDF; type: cell-based; settings: 50% cell death, 72 h
Description: These assays allow determination of both cell death and changes in cell cycle profile in cells following treatment of the compound. The assay is performend as follows: • 1. Cells are incubated in DMEM to which 10% FCS has been added in a humidified incubator at 37° C. and 5% by volume of CO2 in air. The cells are innoculated in 6-well plates at a density of 0.5–5×10^5 cells per well. • 2. The test compound is added in serial dilutions 24–36 h after plating in 0.5% DMSO. The plates are then incubated a further 72 h in the presence of the compound. During this time, cells in control cultures undergo at least three cell divisions. • 3. After incubation, the media is collected and cells are harvested by trypsinization. The cells and media are pooled and pelleted by centrifugation. • 4. The cell pellet is fixed in a final volume of 3 mL of 50% ice cold MeOH and incubated for a minimum of 30 min at −20° C. • 5. The cells are pelleted by centrifugation and resuspended in 0.5 mL PBS containing 1%FCS, […] Propidium Iodide (PI) and 5 mg/mL RNase A and incubated 30 min at 37° C. in the dark. • 6. The samples are analysed by flow cytometry using the relative incorporation of PI as a measure of DNA content of each cell. The % Dead cells is recorded as % of events with less than 2N DNA. […] HDF are normal diploid fibroblast cells. RKO are colon adenocarcinoma cells and MES/SA are ovarian carcinoma cells.

c-fms = biological target: T1, c-fms (Homo sapiens, UniProt P07333); experiment: c-fms protein kinase assay (SPA); type: biochemical; settings: Table 7, class symbols; read-out: c-fms kinase inhibition IC50
T1 sequence (P07333 539-972 limits assumed): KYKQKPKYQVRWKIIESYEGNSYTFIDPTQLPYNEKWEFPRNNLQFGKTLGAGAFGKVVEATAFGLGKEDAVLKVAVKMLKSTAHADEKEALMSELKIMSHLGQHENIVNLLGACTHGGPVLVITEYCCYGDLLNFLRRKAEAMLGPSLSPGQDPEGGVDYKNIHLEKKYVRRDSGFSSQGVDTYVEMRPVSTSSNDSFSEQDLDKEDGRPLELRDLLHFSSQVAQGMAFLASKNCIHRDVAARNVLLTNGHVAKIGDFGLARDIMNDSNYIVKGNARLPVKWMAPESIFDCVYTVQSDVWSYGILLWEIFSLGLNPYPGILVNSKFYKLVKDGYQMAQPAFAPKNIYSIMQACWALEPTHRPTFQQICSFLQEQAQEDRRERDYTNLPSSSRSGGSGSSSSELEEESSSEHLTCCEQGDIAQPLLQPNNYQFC
Description: c-fms protein kinase assays utilized the peptide substrate, biotin-[…]-NH2, as the phosphoryl group acceptor. The c-fms intracellular domain was expressed from a baculovirus expression system, as an amino-terminal GST fusion protein, and purified to homogeneity using Glutathione agarose from Sigma Chemical Co. Maximum activation of the enzyme was achieved by preactivation at room temperature for 120 min in the presence of 100 μM ATP and 15 mM MgCl2, This enzyme stock was diluted to 150 nM prior to using in the assay. Typically assays were performed in white, opaque, 96-well plates in a 45 ul assay volume including 15 ul 6% DMSO, with or without compounds, 15 ul of the preactivated, diluted enzyme, and 15 ul of a substrate mixture. Reactions contained 50 mM HEPES, pH 7.5, 1.7 μM ATP, 15 mM MgCl2, 3 μM peptide, 2.5 mM DTT, 50 mM NaCl and 0.15 uCi/assay [^32P]ATP. The controls were reactions in the presence (negative controls) or absence (positive controls) of 50 mM EDTA. Reactions were allowed to proceed for 90 min at room temperature. The reaction products were quantified using Scintillation Proximity technolgy. […] Plates were sealed and counted in a Packard Topcount scintillation counter. […]

[2] = tested on: HDF normal diploid fibroblast cells; experiment: MTT assay, HDF; type: cell-based; settings: Fibroblast, 72 h
Description: Compounds are tested for their ability to inhibit cell proliferation and cell viability. The metabolic conversion of 3-(4,5-dimethylthiazol-2-yl)-2,5-diphenyltetrazolium bromide (MTT, Sigma #M2128) to a reduced form is a commonly used measure of cellular viability. Following is the procedure: Cells are maintained in 75 cm^2 tissue culture flasks until ready for use. The cells are grown and plated for the assay in Dulbecco's modified Eagle's media (DMEM) containing 10% fetal bovine serum. For example, the following cell lines can be used: a) human foreskin fibroblasts (HFF); b) HT29 (human colon carcinoma cell line); c) MDA-MB468 (human breast carcinoma cell line); d) RKO (human colon adenocarcinoma cell line); e) SW620 (human colon carcinoma cell line); f A549 (human lung carcinoma cell line); and g) MIA PACA (human pancreatic carcinoma cell line). Cells are maintained at 37° C. in 10% CO2, 90% humidified air. Cells are plated in 96-well tissue culture plates at the densities listed below. 100 μL of cell suspension is added to each well of the 96-well plate except the top row of the plate which contains no cells and serves as a reference for the spectrophotometer. [table] Cells are incubated overnight in DMEM containing 10% fetal bovine serum at 37° C. in 10% CO2, 90% humidified air prior to dosing. […] Compounds with solubilities of less than 30 μM are dosed at the highest soluble concentration. Stock solutions of compounds are made in 100% dimethyl sulfoxide (DMSO). Stock solutions are diluted in DMEM containing 100 μg/ml gentamicin and 0.3 to 0.6% DMSO at the twice the highest concentration to be placed on the cells. If compounds have been dissolved in DMSO the final concentration of DMSO on the cells is kept below 0.3%. Three-fold serial dilutions are performed on each compound to prepare 10 concentrations of the compound for dosing. 100 μl of diluted compound is added to the 100 μl of media currently on the dish. For each concentration of compound, 2–4 replicate wells are prepared. Cells are returned to incubator and allowed to proliferate in the presence of compound for 72 h before addition of MTT. […] After 4 h incubation the media, compound and MTT mixture is aspirated from the plates and 100 μl of 100% DMSO is added to each well in addition to 25 μl of Sorenson's Buffer (0.1M glycine, 0.1M NaCl, pH 10.5). Quantitation of metabolic reduction of MTT in each plate is performed by reading optical density at 570 nm wavelength on a Molecular Devices UVmax microplate reader. […] HDF are normal diploid fibroblast cells. RKO are colon adenocarcinoma cells and MES/SA are ovarian carcinoma cells.

CDK2 = CDK2 (Homo sapiens, UniProt P24941); experiment: CDK2 substrate phosphorylation assay; type: biochemical
Description: CDK1 and CDK2 were both expressed utilizing a baculovirus expression system and were partially purified to comprise 20–80% of total protein, with no detectable competing reactions present. […] Reactions were terminated with 0.2–2 volumes of either 20% acetic acid or 50–100 mM EDTA buffered to pH 7 (substrate consumption <20%). The buffer employed in enzyme assays was either 30 mM HEPES 7.4 containing 0.15 M NaCl and 5% DMSO, the buffer 50 mM MOPS 7.0 containing 0.15 M NaCl and 5% DMSO, or the buffer 100 mM HEPES pH 7.5 containing 0.1 mg/mL BSA and 5% DMSO. Inhibitors were diluted in 100% DMSO prior to addition into the assay. Detection of peptide phosphorylation was accomplished by scintillation counting following either collection of peptide onto phosphocellulose filters (for reactions stopped with acetic acid), collection of peptide in wells of 96 well plates coated with Streptavidin (Pierce) (reactions were stopped with EDTA), or addition of Avidin coated Scintillant impregnated beads (Scintillation Proximity Assays from Amersham, reactions were stopped with EDTA).
CDK1 and CDK2 were both expressed utilizing a baculovirus expression system and were partially purified to comprise 20–80% of total protein, with no detectable competing reactions present. […]

[3] = tested on: etoposide-induced alopecia; experiment: Protection from chemotherapy-induced alopecia in rat pups; type: in vivo, Sprague-Dawley rat; settings: 6 mg/kg etoposide intraperitoneally
Description: Protection from chemotherapy-induced alopecia is determined in 7 day old Sprague-Dawley rat pups. The treatment is carried out by administering the compounds topically to the head of the animal in doses from 0.01 to 10 mg/kg 2 h before and 2 h after the administration of a single dose of 6 mg/kg etoposide intraperitoneally. Six days after dosing, animals are scored visually for hair loss using a grading scale from 1 (complete hair loss) to 4 (no apparent hair loss). In this assay, the prior treatment of the animal with the compound of this invention results in a marked reduction in the severity of alopecia compared to vehicle treated controls. Under the above described conditions of treatment, the compounds of the present invention also protect against other toxicities of etoposide. […] Animals treated with the compounds of the present invention in combination with etoposide, in the schedule indicated above, gain weight normally and even exceed the body weight of control, untreated animals.

| SMILES | IC50 [1] | IC50 [2] | also measured |
| --- | --- | --- | --- |
| CCC(C)Cc1cccc2c1C(=NNc1ccc(S(N)(=O)=O)cc1)C(=O)N2 (stereo not drawn) [Example 11] | > 5 µM | – | – |
| O=C1Nc2ccc3ncccc3c2/C1=C/Nc1ccc(CCO)cc1 [Example 32] | – | – | IC50 (c-fms): > 0.1 µM |
| CN(C)S(=O)(=O)c1ccc(NC=C2C(=O)Nc3ccc(-c4cnco4)cc32)cc1 [Example 35] | > 5 µM | > 5 µM | – |
| CS(=O)(=O)Cc1ccc(NC=C2C(=O)Nc3ccc4ncsc4c32)cc1 [Example 76, 8-(4-Methylsulfonylmethyl-phenylamino-methylene)-6,8-dihydro-1-thia-3,6-diaza-as-indacen-7-one] | > 5 µM | > 5 µM | – |
| CC(C)(CO)CNS(=O)(=O)c1ccc(NC=C2C(=O)Nc3ccc4ncsc4c32)cc1 [Example 77, N-(3-Hydroxy-2,2-dimethyl-propyl)4-[(7-oxo-6,7-dihydro-1-thia-3,6-diaza-as-indacen-8-ylidenemethyl)-amino]-benzenesulfonamide] | > 5 µM | > 5 µM | – |
| CNS(=O)(=O)Cc1ccc(NN=C2C(=O)Nc3cc(C)c(O)c(C)c32)cc1 [Example 99] | > 5 µM | 0.6 to 1 µM | IC50 (CDK2): 0.051 to 0.1 µM |
| O=C1Nc2ccc3ncsc3c2C1=CNc1ccc2nn[nH]c2c1 [Example 101, 8-(3H-Benzotriazol-5-ylaminomethylene)-6,8-dihydro-1-thia-3,6-diaza-as-indacene-7-one] | > 5 µM | > 5 µM | – |
| CC(C)COC(=O)c1ccc2c(c1)C(=CNc1ccc(S(N)(=O)=O)cc1)C(=O)N2 [Example 103, 2-Oxo-3-(4-sulfamoyl-phenylamino-methylene)-2,3-dihydro-1H-indole-5-carboxylic acid isobutyl ester] | – | 1.1 to 5 µM | – |
| COc1cc([C@@H]2c3cc4c(cc3[C@@H](O[C@@H]3O[C@@H]5CO[C@@H](C)O[C@H]5[C@H](O)[C@H]3O)[C@H]3COC(=O)[C@H]23)OCO4)cc(OC)c1O [etoposide] | – | – | body weight gain, etoposide alone compared to untreated animals [3]: dramatic lack of weight gain |
